Data on 30 compounds can be found in US20120214822A1 (ASTRAZENECA AB, priority 2007, published 2012).

The pIC50 is the IC50 on a negative log10 scale, so that one unit is a factor of ten. What is called IC50 is the concentration that gives 50% inhibition.

This assay deals with human active recombinant p38α-6His tagged (Homo sapiens, UniProt Q16539). Kind of assay: P38 Alpha Enzyme Assay (AlphaScreen, biotinylated-ATF2 substrate).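 Note: 0.5 nM final p38α, reaction started with ATP and run 45 min at 37 °C, phospho-ATF2 read by antibody-based AlphaScreen, background wells quenched with EDTA before ATP.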 It is filed as biochemical. The conditions noted are these: p38 alpha enzyme inhibition; means of replicate determinations; 4 h pre-incubation at 37° C.; SD of assay 0.2-0.3 log units. On the technique in general: Bead proximity is the source of the signal in Alpha formats.
Sequence of human active recombinant p38α-6His tagged (Q16539 whole entry): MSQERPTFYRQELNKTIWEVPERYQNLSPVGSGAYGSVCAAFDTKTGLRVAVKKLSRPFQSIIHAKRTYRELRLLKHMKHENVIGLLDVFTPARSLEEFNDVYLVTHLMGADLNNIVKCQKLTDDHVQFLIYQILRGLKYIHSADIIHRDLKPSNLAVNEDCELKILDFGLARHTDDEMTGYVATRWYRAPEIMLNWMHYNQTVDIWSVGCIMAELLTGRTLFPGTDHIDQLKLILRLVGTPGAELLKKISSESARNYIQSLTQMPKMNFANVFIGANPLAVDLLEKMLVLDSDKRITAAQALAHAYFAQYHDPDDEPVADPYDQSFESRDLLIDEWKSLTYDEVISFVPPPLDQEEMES
`CNC[C@H](O)COc1ccccc1C1(Nc2nccn(-c3cc(C(=O)NC4CC4)ccc3C)c2=O)CC1` [Example 304, N-Cyclopropyl-3-[3-{[1-(2-{[(2S)-2-hydroxy-3-(methylamino)propyl]oxy}phenyl)cyclopropyl]amino}-2-oxopyrazin-1(2H)-yl]-4-methylbenzamide]: the negative-log IC50 (pIC50) turned out to be 10.2.

Take `Cc1c(F)cc(C(=O)NC2CC2)cc1-n1ccnc(N[C@@H](c2ccccc2)[C@@H](C)CN2CCCC2)c1=O` [Example 328, N-Cyclopropyl-3-fluoro-4-methyl-5-[3-{[(1R,2S)-2-methyl-1-phenyl-3-pyrrolidin-1-ylpropyl]amino}-2-oxopyrazin-1(2H)-yl]benzamide]: the negative-log IC50 (pIC50) amounted to 9.

Take `Cc1cccc(CNc2nccn(-c3cc(C(=O)NC4CC4)ccc3C)c2=O)c1` [Example 46, N-Cyclopropyl-4-methyl-3-[3-[[(3-methylphenyl)methyl]amino]-2-oxo-1(2H)-pyrazinyl]-benzamide]: the pIC50 is 8.

As to `Cc1ccc(C(=O)NC2CC2)cc1-n1ccnc(NC2(c3ccccc3OCCNC3CCS(=O)(=O)C3)CC2)c1=O` (stereo not drawn) [Example 295, N-Cyclopropyl-3-[3-{[1-(2-{2-[(1,1-dioxidotetrahydrothiophen-3-yl)amino]ethoxy}phenyl)cyclopropyl]amino}-2-oxopyrazin-1(2H)-yl]-4-methylbenzamide], the pIC50 was determined as 9.5.

As to `Cc1ccc(C(=O)NC2CC2)cc1-n1ccnc(NC(C)(C)Cc2ccccc2)c1=O` [Example 65, N-Cyclopropyl-3-[3-[(1,1-dimethyl-2-phenylethyl)amino]-2-oxo-1(2H)-pyrazinyl]-4-methyl-benzamide], the pIC50 is reported as 7.

As for `Cc1ccc(C(=O)NC2CC2)cc1-n1ccnc(N[C@@H](CO)c2ccccc2)c1=O` [Example 81, N-Cyclopropyl-3-[3-[[(1R)-2-hydroxy-1-phenylethyl]amino]-2-oxo-1(2H)-pyrazinyl]-4-methyl-benzamide], the pIC50 stood at 6.3.

Consider `CNCCCOc1ccccc1[C@@H]1CCCN1c1nccn(-c2cc(C(=O)NC3CC3)ccc2C)c1=O` (single isomer, unassigned) [Example 326], for which the half-inhibitory concentration (IC50) was 25.1 nM.

Turning to `Cc1ccc(C(=O)NC2CC2)cc1-n1ccnc(NC2(c3ccccc3OCCN3CCC[C@H]3C)CC2)c1=O` [Example 247, N-Cyclopropyl-4-methyl-3-[3-[[1-[2-[2-[(2R)-2-methyl-1-pyrrolidinyl]ethoxy]phenyl]cyclopropyl]amino]-2-oxo-1(2H)-pyrazinyl]-benzamide], the pIC50 was 9.8.

`Cc1ccc(C(=O)NC2CC2)cc1-n1ccnc(NCc2ccccc2F)c1=O` [Example 1, N-Cyclopropyl-3-[3-(2-fluoro-benzylamino)-2-oxo-2H-pyrazin-1-yl]-4-methyl-benzamide]: the pIC50 came to 7.4.

With `Cc1ccc(C(=O)NC2CC2)cc1-n1ccnc(NC2(c3ccccc3OCCN3CCC(F)(F)C3)CC2)c1=O` [Example 244, N-Cyclopropyl-3-[3-[[1-[2-[2-(3,3-difluoro-1-pyrrolidinyl)ethoxy]phenyl]cyclopropyl]amino]-2-oxo-1(2H)-pyrazinyl]-4-methyl-benzamide], the pIC50 came to 9.2.

Consider `Cc1c(F)cc(C(=O)NC2CC2)cc1-n1ccnc(NC2(c3cc(F)ccc3OCCNCCO)CC2)c1=O` [Example 282, N-Cyclopropyl-3-fluoro-5-[3-{[1-(5-fluoro-2-{2-[(2-hydroxyethyl)amino]ethoxy}phenyl)cyclopropyl]amino}-2-oxopyrazin-1(2H)-yl]-4-methylbenzamide], for which the negative-log IC50 (pIC50) is 10.3.

`Cc1ccc(C(=O)NC2CC2)cc1-n1ccnc(N[C@@H](c2ccccc2)[C@@H](C)CN2CCC3(CC2)CNC3)c1=O` [Example 188, N-Cyclopropyl-3-[3-[[(1R,2S)-3-(2,7-diazaspiro[3.5]non-7-yl)-2-methyl-1-phenylpropyl]amino]-2-oxo-1(2H)-pyrazinyl]-4-methyl-benzamide]: the pIC50 turned out to be 9.2.

On to `Cc1ccc(C(=O)NC2CC2)cc1-n1ccnc(NC2(c3ccccc3OCCNCC(C)(C)CO)CC2)c1=O` [Example 242, N-Cyclopropyl-3-[3-[[1-[2-[2-[(3-hydroxy-2,2-dimethylpropyl)amino]ethoxy]phenyl]cyclopropyl]amino]-2-oxo-1(2H)-pyrazinyl]-4-methyl-benzamide], for which the negative logarithm of the IC50 (pIC50) was found to be 9.7.

In the case of `Cc1c(F)cc(C(=O)NC2CC2)cc1-n1ccnc(NC(C)(C)c2ccccc2OCCNCC(C)(C)O)c1=O` [Example 257, N-Cyclopropyl-3-fluoro-5-[3-[[1-[2-[2-[(2-hydroxy-2-methylpropyl)amino]ethoxy]phenyl]-1-methylethyl]amino]-2-oxo-1(2H)-pyrazinyl]-4-methyl-benzamide], the pIC50 worked out at 10.3.

For “4-Methyl-3-[3-[[[4-(4-methyl-1-piperazinyl)phenyl]methyl]amino]-2-oxo-1(2H)-pyrazinyl]-N-(1-methylpropyl)-benzamide [Example 14]”, the pIC50 was 6.

For the compound `Cc1ccc(C(=O)NC2CC2)cc1-n1ccnc(NCC(c2ccccc2)N(C)C)c1=O` (stereo not drawn) [Example 61, N-Cyclopropyl-3-[3-[[2-(dimethylamino)-2-phenylethyl]amino]-2-oxo-1(2H)-pyrazinyl]-4-methyl-benzamide], the negative-log IC50 (pIC50) is given as 6.3.

In the case of `CNCCCOc1ccccc1C1CCCN1c1nccn(-c2cc(C(=O)NC3CC3)ccc2C)c1=O` (stereo not drawn) [Example 324, N-Cyclopropyl-4-methyl-3-[3-(2-{2-[3-(methylamino)propoxy]phenyl}pyrrolidin-1-yl)-2-oxopyrazin-1(2H)-yl]benzamide], the pIC50 is listed as 8.1.

Consider `Cc1ccc(C(=O)NC2CC2)cc1-n1ccnc(NC2(c3ccccc3OCCNC(CO)CO)CC2)c1=O` [Example 294, N-Cyclopropyl-3-[3-({1-[2-(2-{[2-hydroxy-1-(hydroxymethyl)ethyl]amino}ethoxy)phenyl]cyclopropyl}amino)-2-oxopyrazin-1(2H)-yl]-4-methylbenzamide], for which the negative-log IC50 (pIC50) is given as 10.

With `COc1ccccc1[C@H](Nc1nccn(-c2cc(C(=O)NC3CC3)ccc2C)c1=O)[C@@H](C)CN1CCCC1` [Example 277, N-Cyclopropyl-3-[3-[[(1R,2S)-1-(2-methoxyphenyl)-2-methyl-3-(1-pyrrolidinyl)propyl]amino]-2-oxo-1(2H)-pyrazinyl]-4-methyl-benzamide], the negative-log IC50 (pIC50) worked out at 8.5.

`CNC[C@@H](O)COc1ccccc1C1(Nc2nccn(-c3cc(C(=O)NC4CC4)ccc3C)c2=O)CC1` [Example 301, N-Cyclopropyl-3-[3-{[1-(2-{[(2R)-2-hydroxy-3-(methylamino)propyl]oxy}phenyl)cyclopropyl]amino}-2-oxopyrazin-1(2H)-yl]-4-methylbenzamide]: the negative-log IC50 (pIC50) worked out at 10.1.

Take `Cc1ccc(C(=O)NC2CC2)cc1-n1ccnc(N[C@@H](c2ccccc2)[C@@H](C)CNC(C)(C)CO)c1=O` [Example 193, N-Cyclopropyl-3-[3-[[(1R,2S)-3-[(2-hydroxy-1,1-dimethylethyl)amino]-2-methyl-1-phenylpropyl]amino]-2-oxo-1(2H)-pyrazinyl]-4-methyl-benzamide]: the pIC50 came out at 9.3.

For `COC[C@H]1CCCN1C[C@H](C)[C@@H](Nc1nccn(-c2cc(C(=O)NC3CC3)ccc2C)c1=O)c1ccccc1` [Example 147, N-Cyclopropyl-3-[3-[[(1R,2S)-3-[(2R)-2-(methoxymethyl)-1-pyrrolidinyl]-2-methyl-1-phenylpropyl]amino]-2-oxo-1(2H)-pyrazinyl]-4-methyl-benzamide], the negative logarithm of the IC50 (pIC50) is given as 9.

`Cc1ccc(C(=O)NC2CC2)cc1-n1ccnc(N[C@@H](c2ccccc2)[C@@H](C)CN2CCC(F)CC2)c1=O` [Example 174, N-Cyclopropyl-3-[3-[[(1R,2S)-3-(4-fluoro-1-piperidinyl)-2-methyl-1-phenylpropyl]amino]-2-oxo-1(2H)-pyrazinyl]-4-methyl-benzamide]: the pIC50 came out at 8.9.

As to `CNCCOc1ccc(F)cc1C1(Nc2nccn(-c3cc(C(=O)NC4CC4)cc(F)c3C)c2=O)CC1` [Example 281, N-Cyclopropyl-3-fluoro-5-{3-[(1-{5-fluoro-2-[2-(methylamino)ethoxy]phenyl}cyclopropyl)amino]-2-oxopyrazin-1(2H)-yl}-4-methylbenzamide], the pIC50 is given as 10.4.

On to `Cc1c(F)cc(C(=O)NC2CC2)cc1-n1ccnc(NC(C)(C)c2ccccc2OCCN)c1=O` [Example 311, 3-[3-({1-[2-(2-Aminoethoxy)phenyl]-1-methylethyl}amino)-2-oxopyrazin-1(2H)-yl]-N-cyclopropyl-5-fluoro-4-methylbenzamide], for which the pIC50 came out at 10.1.

In the case of `Cc1ccc(C(=O)NC2CC2)cc1-n1ccnc(NCc2ccc3c(c2)OCO3)c1=O` [Example 32, 3-[3-[(1,3-Benzodioxol-5-ylmethyl)amino]-2-oxo-1(2H)-pyrazinyl]-N-cyclopropyl-4-methyl-benzamide], the pIC50 is 6.8.

As for `Cc1ccc(C(=O)NC2CC2)cc1-n1ccnc(NC(C)(C)c2ccccc2OCCCN2CCN(C)CC2)c1=O` [Example 208, N-Cyclopropyl-4-methyl-3-[3-[[1-methyl-1-[2-[3-(4-methyl-1-piperazinyl)propoxy]phenyl]ethyl]amino]-2-oxo-1(2H)-pyrazinyl]-benzamide], the negative logarithm of the IC50 (pIC50) amounted to 9.1.

For `Cc1ccc(C(=O)NC2CC2)cc1-n1ccnc(N[C@@H](c2ccccc2)[C@@H](C)CN2CCCC2)c1=O` [Example 142, N-Cyclopropyl-4-methyl-3-[3-[[(1R,2S)-2-methyl-1-phenyl-3-(1-pyrrolidinyl)propyl]amino]-2-oxo-1(2H)-pyrazinyl]-benzamide], the pIC50 is given as 8.8.

With `CCCNCCOc1ccccc1C1(Nc2nccn(-c3cc(C(=O)NC4CC4)ccc3C)c2=O)CC1` [Example 298, N-Cyclopropyl-4-methyl-3-{2-oxo-3-[(1-{2-[2-(propylamino)ethoxy]phenyl}cyclopropyl)amino]pyrazin-1(2H)-yl}benzamide], the negative logarithm of the IC50 (pIC50) is listed as 10.2.

Take `Cc1c(F)cc(C(=O)NC2CC2)cc1-n1ccnc(NC(C)(C)c2ccccc2OCCNCC(=O)O)c1=O` [Example 312, N-(2-{2-[1-({4-[5-(Cyclopropylcarbamoyl)-3-fluoro-2-methylphenyl]-3-oxo-3,4-dihydropyrazin-2-yl}amino)-1-methylethyl]phenoxy}ethyl)glycine]: the negative-log IC50 (pIC50) was 9.8.
